Experimental findings from ChEMBL document CHEMBL1131880, “Synthesis and in vitro cytotoxicity of hexacyclic camptothecin analogues” (Bioorg Med Chem Lett, 1999) are described below.

Common to all, as to type: functional, cell-based
The test system of one experiment is A549. Description: In vitro cytotoxicity against human tumor cell line A549.
A further experiment has as its system DLD-1. The experiment can be described thus: In vitro cytotoxicity against human tumor cell line DLD-1.
Experiment [1] concerns KATO III stomach cancer cell line. The experiment can be described thus: In vitro cytotoxicity against human tumor cell line KATO-III.
For the next experiment, the system named is Caov-3 cell line. Description: In vitro cytotoxicity against human tumor cell line CAOV-3.
The next experiment has as its system HEC-1B cell line. The experiment can be described thus: In vitro cytotoxicity against human tumor cell line HEC-1-B.

As usually defined, the IC50 is the concentration that gives 50% inhibition. For `CCC1(O)C(=O)OCc2c1cc1n(c2=O)Cc2c-1nc1ccccc1c2CCNC(C)C` (stereo not drawn), the IC50 in the experiment on A549 amounted to 0.26 nM; with DLD-1 it was 7.3 nM; in experiment [1], 1.6 nM.

On to `CCCNCCc1c2c(nc3cc4c(cc13)OCCO4)-c1cc3c(c(=O)n1C2)COC(=O)C3(O)CC` (stereo not drawn), for which the IC50 in the experiment on Caov-3 cell line and in the experiment with HEC-1B cell line was more than 100000 nM each time.

For `CCC1(O)C(=O)OCc2c1cc1n(c2=O)Cc2c-1nc1cc3c(cc1c2CCNCC(C)C)OCO3` (stereo not drawn), the values for the IC50 with Caov-3 cell line and with HEC-1B cell line were 21900 nM and 10000 nM, respectively.

`CCC(C)CNCCc1c2c(nc3cc4c(cc13)OCO4)-c1cc3c(c(=O)n1C2)COC(=O)C3(O)CC` (stereo not drawn): the IC50 in the experiment with Caov-3 cell line came to 6570 nM; with HEC-1B cell line, 2710 nM.

For `CCC(C)NCCc1c2c(nc3cc4c(cc13)OCCO4)-c1cc3c(c(=O)n1C2)COC(=O)C3(O)CC` (stereo not drawn), the IC50 in the experiment on Caov-3 cell line was found to be 2000 nM; with HEC-1B cell line, 3290 nM.

As to `CCC(C)NCCc1c2c(nc3cc4c(cc13)OCO4)-c1cc3c(c(=O)n1C2)COC(=O)C3(O)CC` (stereo not drawn), the 50% inhibitory concentration (IC50) in the experiment on Caov-3 cell line was found to be 1510 nM; with HEC-1B cell line, 14800 nM.

Regarding `CCCCNCCc1c2c(nc3cc4c(cc13)OCCO4)-c1cc3c(c(=O)n1C2)COC(=O)C3(O)CC` (stereo not drawn), the IC50 with Caov-3 cell line was 7120 nM; in the experiment with HEC-1B cell line, 3650 nM.

As to `CCNCCc1c2c(nc3cc4c(cc13)OCCO4)-c1cc3c(c(=O)n1C2)COC(=O)C3(O)CC` (stereo not drawn), the IC50 in the experiment with A549 stood at 0.5 nM; in the experiment on HEC-1B cell line, 190 nM.

For `CCCNCCc1c2c(nc3cc4c(cc13)OCO4)-c1cc3c(c(=O)n1C2)COC(=O)C3(O)CC` (stereo not drawn), the IC50 in the experiment with A549 was determined as 0.11 nM; in the experiment on Caov-3 cell line, 63000 nM; in the experiment with DLD-1 it was 26 nM; in the experiment on HEC-1B cell line it was 2110 nM.

As for `CCC1(O)C(=O)OCc2c1cc1n(c2=O)Cc2c-1nc1cc3c(cc1c2CCNC(C)C)OCCO3` (stereo not drawn), the results for the IC50 in the experiment on Caov-3 cell line and with HEC-1B cell line were 2320 nM and 12800 nM, respectively.

Turning to `CCNCCc1c2c(nc3cc4c(cc13)OCO4)-c1cc3c(c(=O)n1C2)COC(=O)C3(O)CC` (stereo not drawn), the IC50 with A549 stood at 0.094 nM; in the experiment with Caov-3 cell line it was 33000 nM; in the experiment on HEC-1B cell line, 6060 nM; in experiment [1] it was 2.9 nM.

On to `CCN(CC)CCNCCc1c2c(nc3cc4c(cc13)OCCO4)-c1cc3c(c(=O)n1C2)COC(=O)C3(O)CC` (stereo not drawn), for which the IC50 in the experiment with Caov-3 cell line is more than 100000 nM; in the experiment with HEC-1B cell line, 12100 nM.

As to `CCCCNCCc1c2c(nc3cc4c(cc13)OCO4)-c1cc3c(c(=O)n1C2)COC(=O)C3(O)CC` (stereo not drawn), the IC50 with Caov-3 cell line turned out to be 62000 nM; in the experiment with HEC-1B cell line it was 4680 nM.

Regarding `CCC1(O)C(=O)OCc2c1cc1n(c2=O)Cc2c-1nc1cc3c(cc1c2CCNCC(C)C)OCCO3` (stereo not drawn), the IC50 in the experiment on Caov-3 cell line came to 7120 nM; in the experiment on HEC-1B cell line, 3650 nM.

With `CCC(C)CNCCc1c2c(nc3cc4c(cc13)OCCO4)-c1cc3c(c(=O)n1C2)COC(=O)C3(O)CC` (stereo not drawn), the values for the IC50 with Caov-3 cell line and with HEC-1B cell line were 3500 nM and 3440 nM, respectively.

Consider `CCC1(O)C(=O)OCc2c1cc1n(c2=O)Cc2c-1nc1cc3c(cc1c2CCNC(C)C)OCO3` (stereo not drawn), for which the IC50 came to 8.9 nM with DLD-1, 670 nM in the experiment with HEC-1B cell line and 45 nM in experiment [1].

With `CC[C@@]1(O)C(=O)OCc2c1cc1n(c2=O)Cc2cc3ccccc3nc2-1` [CAMPTOTHECIN], the IC50 in the experiment on A549 was found to be 0.33 nM; in the experiment with Caov-3 cell line, 2.9 nM; in the experiment on DLD-1, 14 nM; in the experiment on HEC-1B cell line, 60 nM; in experiment [1], 46 nM.
